Patent US9522888B2, “Substituted bicyclic compounds” (BRISTOL-MYERS SQUIBB COMPANY, priority 2014, dated 2016)

Experiments:
human S1P1 = human S1P1 (Homo sapiens (Human), UniProt P21453); test: S1P1 binding assay (33P-S1P radioligand competition, CHO cell membranes); conditions: phosphate examples; read-out: S1P1 Binding
Description: Membranes were prepared from CHO cells expressing human S1P1. Cells pellets (1×10^9 cells/pellet) were suspended in buffer containing 20 mM HEPES (4-(2-hydroxyethyl)-1-piperazineethanesulfonic acid), pH 7.5, 50 mM NaCl, 2 mM EDTA (Ethylenediaminetetraacetic acid) and Protease Inhibitor cocktail (Roche), and disrupted on ice using the Polytron homogenizer. The homogenate was centrifuged at 20,000 rpm (48,000 g) and the supernatant was discarded. The membrane pellets were resuspended in buffer containing 50 mM HEPES, pH 7.5, 100 mM NaCl, 1 mM MgCl2, 2 mM EDTA and stored in aliquots at −80° C. after protein concentration determination.

[1] = target: S1P1 (membranes prepared from S1P1/CHO cells) (Homo sapiens (Human), UniProt P21453); test: Receptor [35S] GTPγS binding assay (S1P1 GTPγS); assay type: biochemical; conditions: phosphate examples; read-out: S1P1 GTPγS
Description: (§1) Receptor [^35S] GTPγS Binding Assays: (S1P1 GTPγS/S1P3 GTPγS)
Compounds were loaded in a 384 Falcon v-bottom plate (0.5 μl/well in a 11 point, 3-fold dilution). Membranes prepared from S1P1/CHO cells or EDG3-Gal5-bla HEK293T cells (EDG3 equivalent S1P3) were added to the compound plate (40 μl/well, final protein 3 μg/well) with MULTIDROP®. [^35S] GTP (1250 Ci/mmol, Perkin Elmer) was diluted in assay buffer: 20 mM HEPES, pH7.5, 10 mM MgCl2, 150 mM NaCl, 1 mM EGTA (ethylene glycol tetraacetic acid), 1 mM DTT (Dithiothreitol), 10 μM GDP, 0.1% fatty acid free BSA, and 10 μg/ml Saponin to 0.4 nM. 40 μl of the [^35S] GTP solution was added to the compound plate with a final concentration of 0.2 nM. The reaction was kept at room temperature for 45 min. At the end of incubation, all the mixtures in the compound plate were transferred to Millipore 384-well FB filter plates via the VELOCITY11® Vprep liquid handler. The filter plate was washed with water 4 times by using the manifold Embla plate washer and dried at 60° C. for 45 min. MicroScint 20 scintillation fluid (30 μl) was added to each well for counting on the Packard TOPCOUNT®. […]

[2] = target: S1P3 (membranes prepared from EDG3-Gal5-bla HEK293T cells) (Homo sapiens (Human), UniProt Q99500); test: Receptor [35S] GTPγS binding assay (S1P3 GTPγS); assay type: biochemical; conditions: phosphate examples; read-out: S1P3 GTPγS
Description: as §1
Compounds were loaded in a 384 Falcon v-bottom plate (0.5 μl/well in a 11 point, 3-fold dilution). Membranes prepared from S1P1/CHO cells or EDG3-Gal5-bla HEK293T cells (EDG3 equivalent S1P3) were added to the compound plate (40 μl/well, final protein 3 μg/well) with MULTIDROP®. [^35S] GTP (1250 Ci/mmol, Perkin Elmer) was diluted in assay buffer: 20 mM HEPES, pH7.5, 10 mM MgCl2, 150 mM NaCl, 1 mM EGTA (ethylene glycol tetraacetic acid), 1 mM DTT (Dithiothreitol), 10 μM GDP, 0.1% fatty acid free BSA, and 10 μg/ml Saponin to 0.4 nM. 40 μl of the [^35S] GTP solution was added to the compound plate with a final concentration of 0.2 nM. The reaction was kept at room temperature for 45 min. At the end of incubation, all the mixtures in the compound plate were transferred to Millipore 384-well FB filter plates via the VELOCITY11® Vprep liquid handler. The filter plate was washed with water 4 times by using the manifold Embla plate washer and dried at 60° C. for 45 min. MicroScint 20 scintillation fluid (30 μl) was added to each well for counting on the Packard TOPCOUNT®.
A smaller value for GTPγS S1P1 EC50 value indicated greater activity for the compound in the GTPγS S1P1 binding assay. A larger value for the GTPγS S1P3 EC50 value indicated less activity in the GTPγS S1P3 binding assay. […] Thus the compounds of the present invention may be used in treating, preventing, or curing various S1P1 receptor-related conditions while reducing or minimizing the side effects due to S1P3 activity. The selectivity of the compounds of the present invention indicate their potential use in treating, preventing, or curing autoimmune and inflammatory diseases such as multiple sclerosis, rheumatoid arthritis, inflammatory bowel disease, lupus, psoriasis, or vascular diseases, while reducing or minimizing possible side effects due to S1P3 activity. Other potential uses of the compounds of the present invention include minimizing or reducing rejection of transplanted organs, while reducing or minimizing side effects due to S1P3 activity.

hS1P1/CHO cells = hS1P1/CHO cells (Homo sapiens (Human), UniProt P21453); test: hS1P1 ERK phosphorylation (S1P1 pERK); assay type: cell-based; conditions: phosphate examples
Description: hS1P1 ERK Phosphorylation (S1P1 pERK)
hS1P1/CHO cells were plated into BD Amine 384-well plates the day before the assay. On the day of the assay, growth medium was removed and replaced with serum-free medium (Ham's F-12 Invitrogen) and incubated for 2 hours. Test compounds pre-diluted in HBSS (Gibco)/20 mM HEPES (Gibco) were transferred to the cell plates and incubated for 7 minutes at 37° C. Cells were lysed in lysis buffer (Perkin Elmer) and phospho-ERK was measured using the SureFire pERK kit (Perkin Elmer) as described by the manufacturer. Data was plotted as percentage activation of the test compound relative to the efficacy of 10 μM S1P.

Sequence of S1P3 (membranes prepared from EDG3-Gal5-bla HEK293T cells) (Q99500 whole entry): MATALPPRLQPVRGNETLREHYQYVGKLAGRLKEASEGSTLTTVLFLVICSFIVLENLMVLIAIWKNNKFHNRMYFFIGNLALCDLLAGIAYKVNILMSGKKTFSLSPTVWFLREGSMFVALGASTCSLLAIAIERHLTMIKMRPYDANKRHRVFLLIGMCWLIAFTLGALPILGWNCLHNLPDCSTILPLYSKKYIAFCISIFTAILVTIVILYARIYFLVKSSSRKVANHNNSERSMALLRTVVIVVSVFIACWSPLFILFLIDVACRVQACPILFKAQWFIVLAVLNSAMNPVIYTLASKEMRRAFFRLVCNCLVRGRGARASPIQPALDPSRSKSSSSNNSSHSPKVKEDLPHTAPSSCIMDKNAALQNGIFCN
Sequence of S1P1 (membranes prepared from S1P1/CHO cells) (P21453 whole entry): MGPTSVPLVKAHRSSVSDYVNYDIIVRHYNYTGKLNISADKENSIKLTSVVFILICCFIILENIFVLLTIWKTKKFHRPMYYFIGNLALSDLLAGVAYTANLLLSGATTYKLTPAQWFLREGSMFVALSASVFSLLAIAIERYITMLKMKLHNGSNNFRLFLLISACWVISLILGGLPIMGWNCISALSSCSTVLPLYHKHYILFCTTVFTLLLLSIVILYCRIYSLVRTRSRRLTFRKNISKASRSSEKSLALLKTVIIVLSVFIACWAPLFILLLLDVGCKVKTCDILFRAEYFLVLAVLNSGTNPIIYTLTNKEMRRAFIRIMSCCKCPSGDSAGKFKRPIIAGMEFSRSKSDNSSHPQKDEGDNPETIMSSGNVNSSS
Sequence of human S1P1 (P21453 whole entry): as above
Sequence of hS1P1/CHO cells (P21453 whole entry): as above

Structure (SMILES): CCCCCO[C@@H]1CCc2cc([C@@H]3CC[C@](N)(COP(=O)(O)O)C3)ccc2C1 [compound 433]
- IC50 (human S1P1): 10 to 100 nM
- EC50 [1]: 100 to 1000 nM
- EC50 [2]: > 625 nM
- EC50 (hS1P1/CHO cells): < 10 nM

Structure (SMILES): CCCCCO[C@H]1CCc2cc([C@@H]3CC[C@](N)(COP(=O)(O)O)C3)ccc2C1 [compound 434]
- IC50 (human S1P1): < 10 nM
- EC50 [1]: 10 to 100 nM
- EC50 [2]: > 625 nM
- EC50 (hS1P1/CHO cells): < 10 nM

Structure (SMILES): CCCCO[C@H]1CCc2cc([C@H]3CC[C@](N)(COP(=O)(O)O)C3)ccc2C1 [compound 436]
- IC50 (human S1P1): < 10 nM
- EC50 [1]: 10 to 100 nM
- EC50 [2]: > 625 nM
- EC50 (hS1P1/CHO cells): < 10 nM

Structure (SMILES): CCC/C=C\CO[C@H]1CCc2cc([C@H]3CC[C@](N)(COP(=O)(O)O)C3)ccc2C1 [compound 437]
- IC50 (human S1P1): < 10 nM
- EC50 [1]: < 10 nM
- EC50 [2]: > 625 nM
- EC50 (hS1P1/CHO cells): < 10 nM

Structure (SMILES): CCC/C=C\CO[C@@H]1CCc2cc([C@H]3CC[C@](N)(COP(=O)(O)O)C3)ccc2C1 [compound 438]
- IC50 (human S1P1): < 10 nM
- EC50 [1]: 10 to 100 nM
- EC50 [2]: > 625 nM
- EC50 (hS1P1/CHO cells): < 10 nM

Structure (SMILES): CCCC/C=C\CO[C@H]1CCc2cc([C@H]3CC[C@](N)(COP(=O)(O)O)C3)ccc2C1 [compound 440]
- IC50 (human S1P1): < 10 nM
- EC50 [1]: < 10 nM
- EC50 [2]: > 625 nM
- EC50 (hS1P1/CHO cells): < 10 nM

Structure (SMILES): COc1cccc(CO[C@H]2CCc3cc([C@H]4CC[C@](N)(COP(=O)(O)O)C4)ccc3C2)c1 [compound 442]
- IC50 (human S1P1): < 10 nM
- EC50 [1]: < 10 nM
- EC50 [2]: > 625 nM
- EC50 (hS1P1/CHO cells): < 10 nM

Structure (SMILES): CCOc1cccc(CO[C@@H]2CCc3cc([C@H]4CC[C@](N)(COP(=O)(O)O)C4)ccc3C2)c1 [compound 444]
- IC50 (human S1P1): < 10 nM
- EC50 [1]: < 10 nM
- EC50 [2]: > 625 nM
- EC50 (hS1P1/CHO cells): < 10 nM

Structure (SMILES): N[C@]1(COP(=O)(O)O)CC[C@H](c2ccc3c(c2)CC[C@H](COCc2ccccc2)C3)C1 [compound 445]
- IC50 (human S1P1): 10 to 100 nM
- EC50 [1]: 10 to 100 nM
- EC50 [2]: > 625 nM
- EC50 (hS1P1/CHO cells): 10 to 100 nM

Structure (SMILES): CCCCOC[C@H]1CCc2cc([C@H]3CC[C@](N)(COP(=O)(O)O)C3)ccc2C1 [compound 446]
- IC50 (human S1P1): 10 to 100 nM
- EC50 [1]: 100 to 1000 nM
- EC50 [2]: > 625 nM
- EC50 (hS1P1/CHO cells): < 10 nM

Structure (SMILES): CCCCOC[C@@H]1CCc2cc([C@H]3CC[C@](N)(COP(=O)(O)O)C3)ccc2C1 [compound 447]
- IC50 (human S1P1): 10 to 100 nM
- EC50 [1]: 100 to 1000 nM
- EC50 [2]: > 625 nM
- EC50 (hS1P1/CHO cells): < 10 nM

Structure (SMILES): CCCCCOC[C@H]1CCc2cc([C@H]3CC[C@](N)(COP(=O)(O)O)C3)ccc2C1 [compound 448]
- IC50 (human S1P1): < 10 nM
- EC50 [1]: < 10 nM
- EC50 [2]: > 625 nM
- EC50 (hS1P1/CHO cells): < 10 nM

Structure (SMILES): N[C@]1(COP(=O)(O)O)CC[C@H](c2ccc3c(c2)CC[C@@H](COc2ccc(F)cc2)C3)C1 [compound 449]
- IC50 (human S1P1): < 10 nM
- EC50 [1]: 10 to 100 nM
- EC50 [2]: > 625 nM
- EC50 (hS1P1/CHO cells): 10 to 100 nM

Structure (SMILES): CCCCCCCCCCOC[C@H]1CCc2cc([C@H]3CC[C@](N)(COP(=O)(O)O)C3)ccc2C1 [compound 450]
- IC50 (human S1P1): < 10 nM
- EC50 [1]: < 10 nM
- EC50 [2]: > 625 nM
- EC50 (hS1P1/CHO cells): 10 to 100 nM

Structure (SMILES): N[C@]1(COP(=O)(O)O)CC[C@H](c2ccc3c(c2)CC[C@@H](COCCCC(F)(F)F)C3)C1 [compound 451]
- IC50 (human S1P1): < 10 nM
- EC50 [1]: < 10 nM
- EC50 [2]: > 625 nM
- EC50 (hS1P1/CHO cells): 10 to 100 nM
